Counter-ions that a name gives are not always drawn.
Assays:
[1] = biological target: T1, human H3 receptor (Homo sapiens, UniProt Q9Y5N1); assay: Human H3 radioligand binding ([3H]-N-alpha-methylhistamine, CHO cell membranes); details: membranes of CHO cells stably expressing the human H3 receptor; [3H]-N-alpha-methylhistamine approx. 1 nM
T1 construct: expressed in transfected cells
Description: Methods: CHO cells stably expressing the human H3 receptor (GenBank: NM_007232) were harvested and cell pellets were frozen (—80° C.). Cell pellets were resuspended in 5 mM Tris-HCl, pH 7.5 with […] and a cocktail of protease inhibitors (Complete Protease Inhibitior Tablets, Roche Diagnostics). Cells were disrupted using a polytron cell homogenizer and the suspension was centrifuged at 1000×g for 10 minutes at 4° C. The pellet was discarded and the supernatant centrifuged at 40,000×g for 30 min at 4° C. This membrane pellet was washed in membrane buffer containing 50 mM Tris-HCl, pH 7.5 with 0.6 mM EDTA, 5 mM MgCl2 and protease inhibitors, recentrifuged as above and the final pellet resuspended in membrane buffer plus 250 mM sucrose and frozen at −80° C.
Radioligand Binding. Membranes were resuspended in 50 mM Tris HCl (pH 7.4), 5 mM MgCl2, 0.1% BSA. The membrane suspensions (10 μg protein per well) were incubated in a 96 well microtiter plate with [^3H]-N-alpha-methylhistamine (approximately 1 nM final concentration), test compounds at various concentrations (0.01 nM-30 μM) and scintillation proximity beads (Perkin Elmer, FlashBlueGPCR Scintillating Beads) in a final volume of 80 μl for 4 hours at room temperature, protected from light. Non-specific binding was determined in the presence of 10 μM clobenpropit. Radioligand bound to receptor, and therefore in proximity to the scintillation beads, was measured using a MicroBeta scintillation counter.

T1 sequence (Q9Y5N1 whole entry): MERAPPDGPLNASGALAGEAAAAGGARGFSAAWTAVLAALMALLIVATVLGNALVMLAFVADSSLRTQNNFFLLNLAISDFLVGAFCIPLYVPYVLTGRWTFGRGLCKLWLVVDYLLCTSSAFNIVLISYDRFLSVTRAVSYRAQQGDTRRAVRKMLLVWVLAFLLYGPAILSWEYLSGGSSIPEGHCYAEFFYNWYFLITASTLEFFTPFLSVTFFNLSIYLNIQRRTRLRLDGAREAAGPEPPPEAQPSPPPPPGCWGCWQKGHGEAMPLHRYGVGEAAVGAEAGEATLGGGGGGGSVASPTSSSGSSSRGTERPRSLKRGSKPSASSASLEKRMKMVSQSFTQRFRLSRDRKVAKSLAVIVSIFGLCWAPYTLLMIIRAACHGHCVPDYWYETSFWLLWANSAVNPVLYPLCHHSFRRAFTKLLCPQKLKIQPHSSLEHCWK

Ki [1] [nM] | melting point [°C] | SMILES
< 50 |  | C[C@H](COc1ccc(-c2ccc(Cl)nn2)cc1)CN1CCC[C@H]1C [Example 43, 3-Chloro-6-{4-[(S)-2-methyl-3-((R)-2-methylpyrrolidin-1-yl)propoxy]-phenyl}pyridazine]
< 50 |  | C[C@@H]1CCCN1CCCOc1ccc(-c2ccc(N3CCOCC3)nn2)cc1 [Example 6, 4-(6-{4-[3-((R)-2-Methylpyrrolidin-1-yl)-propoxy]phenyl}pyridazin-3-yl)morpholine]
< 50 |  | C[C@@H]1CCCN1CCCOc1ccc(-c2ccc(S(=O)(=O)Cc3ccccc3)nn2)cc1 [Example 37, 3-{4-[3-((R)-2-Methyl-pyrrolidin-1-yl)-propoxy]phenyl}-6-phenylmethanesulfonyl-pyridazine]
< 50 | 140 | Clc1ccc(-c2ccc(OCCCN3CCCCC3)cc2)nn1 [Example 2, 3-Chloro-6-[4-(3-piperidin-1-yl-propoxy)-phenyl]pyridazine]
< 50 | 119 | C[C@@H]1CCCN1CCCOc1ccc(-c2ccc(Oc3cncc(Cl)c3)nn2)cc1 [Example 19]
< 50 | 109 | COc1nnc(-c2ccc(OCCCN3CCC[C@H]3C)cc2)c2c1CCC2 [Example 39, 1-Methoxy-4-{4-[3-((R)-2-methylpyrrolidin-1-yl)-propoxy]-phenyl}6,7-dihydro-5H-cyclopenta[d]pyridazine]
< 50 | 139.5 to 141 | C[C@@H]1CCCN1CCCOc1ccc(-c2ccc(NCc3ccccc3)nn2)cc1 [Example 29, Benzyl-(6-{4-[3-((R)-2-methyl-pyrrolidin-1-yl)-propoxy]-phenyl}-pyridazin-3-yl)amine]
< 50 | 121 | COc1ccc(-c2ccc(OCCCN3CCC[C@H]3C)cc2)nn1 [Example 22]
> 101 | 122 | COc1cc(-c2ccc(Cl)nn2)ccc1OCCCN1CCC[C@H]1C [Example 10, 3-Chloro-6-{3-methoxy-4-[3-((R)-2-methyl-pyrrolidin-1-yl)propoxy}phenyl}pyridazine]
< 50 | 116 | COc1ccc(-c2ccc(OCCCN3CCCCC3)cc2)nn1 [Example 23]
< 50 |  | C[C@@H]1CCCN1CCCOc1ccc(-c2cccnn2)cc1 [Example 45, 3-{4-[3-((R)-2-Methyl-pyrrolidin-1-yl)-propoxy]-phenyl}-pyridazine]
< 50 | 132 to 134 | C[C@@H]1CCCN1CCCOc1ccc(-c2nnc(Cl)c3c2C2CCC3CC2)cc1 [Example 18, 3-Chloro-6-{4-[3-((R)-2-methyl-pyrrolidin-1-yl)-propoxy]-phenyl}-4,5-diaza-tricyclo[6.2.2.0*2,7*]dodeca-2(7),3,5-triene]
 | 198 to 201 | C[C@@H]1CCCN1CCCOc1ccc(-c2cccnn2)cc1 (as salt: HCl) [Example 45, 3-{4-[3-((R)-2-Methyl-pyrrolidin-1-yl)-propoxy]-phenyl}-pyridazine]
< 50 | 144 | c1ccc(CSc2ccc(-c3ccc(OCCCN4CCCCC4)cc3)nn2)cc1 [Example 34, 3-Benzylsulfanyl-6-[4-(3-piperidin-1-yl-propoxy)-phenyl]pyridazine]
< 50 | 65 | C[C@@H]1CCCN1CCCOc1ccc(-c2nnc(Cl)c3c2CCC3)cc1 [Example 17, 1-Chloro-4-{4-[3-((R)-2-metyl-pyrrolidin-1-yl)-propoxy]-phenyl}-6,7-dihydro-5H-cyclopenta[d]pyridazine]
> 101 | 108 to 110 | CC1CCCCN1C[C@H](C)COc1ccc(-c2ccc(Cl)nn2)cc1 (stereo partly drawn) [Example 44, 3-Chloro-6-{4-[(S)-2-methyl-3-(2-methylpiperidin-1-yl)propoxy]-phenyl}pyridazine]

Ki [1] [nM] | melting point [°C] | SMILES
< 50 |  | CCNc1ccc(-c2ccc(OCCCN3CCC[C@H]3C)cc2)nn1 [Example 28, Ethyl-(6-{4-[3-((R)-2-methyl-pyrrolidin-1-yl)-propoxy]-phenyl}pyridazin-3-yl)amine]
> 101 | 140 to 142 | N#Cc1cc(-c2ccc(Cl)nn2)ccc1OCCCN1CCCCC1 [Example 14, 5-(6-Chloro-pyridazin-3-yl)-2-(3-piperidin-1-yl-propoxy)benzonitrile]
< 50 |  | Cc1ccc(-c2ccc(OCCCN3CCC[C@H]3C)cc2)nn1 [Example 3, 3-Methyl-6-{4-[3-((R)-2-methyl-pyrrolidin-1-yl)-propoxy]-phenyl}pyridazine]
< 50 |  | c1ccc(COc2ccc(-c3ccc(OCCCN4CCCCC4)cc3)nn2)cc1 [Example 20, 3-Benzyloxy-6-[4-(3-piperidin-1-yl-propoxy)phenyl]pyridazine]
< 50 | 120 | Clc1nnc(-c2ccc(OCCCN3CCCCC3)cc2)c2c1CCC2 [Example 15, 1-Chloro-4-[4-(3-piperidin-1-yl-propoxy)-phenyl]-6,7-dihydro-5H-cyclopenta[d]pyridazine]
< 50 | 126 to 129 | CNc1ccc(-c2ccc(OCCCN3CCC[C@H]3C)cc2)nn1 [Example 8, Methyl-(6-{4-[3-((R)-2-methyl-pyrrolidin-1-yl)-propoxy]phenyl}pyridazin-3-yl)amine]
< 50 | 158 to 160 | C[C@@H]1CCCN1CCCOc1ccc(-c2ccc(-c3ccccc3)nn2)cc1 [Example 4, 3-{4-[3-((R)-2-Methyl-pyrrolidin-1-yl)-propoxy]-phenyl}-6-phenylpyridazine]
< 50 | 175 to 180 | C[C@@H]1CCCN1CCCOc1ccc(-c2ccc(N3CCCC3)nn2)cc1 [Example 5, 3-{4-[3-((R)-2-Methyl-pyrrolidin-1-yl)-propoxy]-phenyl}-6-pyrrolidin-1-yl-pyridazine]
> 101 | 120 | COc1cc(-c2ccc(Cl)nn2)ccc1OCCCN1CCCCC1 [Example 11, 3-Chloro-6-[3-methoxy-4-(3-piperidin-1-yl-propoxy)phenyl]pyridazine]
< 50 | 101 | CSc1ccc(-c2ccc(OCCCN3CCC[C@H]3C)cc2)nn1 [Example 30]
< 50 | 134 | O=S(=O)(Cc1ccccc1)c1ccc(-c2ccc(OCCCN3CCCCC3)cc2)nn1 [Example 38, 3-Phenylmethanesulfonyl-6-[4-(3-piperidin-1-yl-propoxy)phenyl]pyridazine]
< 50 | 85 | Cc1cc(OCCCN2CCCCC2)ccc1-c1ccc(Cl)nn1 [Example 12, 3-Chloro-6-[2-methyl-4-(3-piperidin-1-yl-propoxy)phenyl]pyridazine]
< 50 |  | C[C@@H]1CCCN1CCCOc1ccc(-c2ccc(Cl)nn2)cc1 [Example 1, 3-Chloro-6-{4-[3-((R)-2-methyl-pyrrolidin-1-yl)propoxy]-phenyl}pyridazine]
< 50 |  | CSc1nnc(-c2ccc(OCCCN3CCC[C@H]3C)cc2)c2c1CCC2 [Example 32, 1-{4-[3-((R)-2-Methyl-pyrrolodin-1-yl)-propoxy]-phenyl}-4-methylsulfanyl-6,7-dihydro-5H-cyclopenta[d]pyridazine]
< 50 |  | C[C@@H]1CCCN1CCCOc1ccc(-c2ccc([S+]([O-])Cc3ccccc3)nn2)cc1 (stereo partly drawn) [Example 35, 3-{4-[3-((R)-2-Methylpyrrolidin-1-yl)propoxy]phenyl}-6-phenylmethanesulfinyl-pyridazine]

— patent publication US8076331B2, “Substituted pyridazine derivatives” (Cephalon, Inc., priority 2008, dated 2011)
